Source: PMC6437697 (Journal of Medicinal Chemistry, 2019)

Key:
Assay in all cases: KINOMEscan
Type in all cases: binding
Settings in all cases: read-out: % control activity remaining
[1] = biological target: T1, PKN2 (Homo sapiens, UniProt Q16513)
T1 construct: purchased Eurofins DiscoverX KINOMEscan

[2] = biological target: T2, NIK (Homo sapiens, UniProt Q99558)
T2 construct: purchased Eurofins DiscoverX KINOMEscan

[3] = biological target: T3, ALK(C1156Y) (Homo sapiens, UniProt Q9UM73, C1156Y)
T3 construct: purchased Eurofins DiscoverX KINOMEscan
T3 sequence (Q9UM73 19-1620 C1156Y): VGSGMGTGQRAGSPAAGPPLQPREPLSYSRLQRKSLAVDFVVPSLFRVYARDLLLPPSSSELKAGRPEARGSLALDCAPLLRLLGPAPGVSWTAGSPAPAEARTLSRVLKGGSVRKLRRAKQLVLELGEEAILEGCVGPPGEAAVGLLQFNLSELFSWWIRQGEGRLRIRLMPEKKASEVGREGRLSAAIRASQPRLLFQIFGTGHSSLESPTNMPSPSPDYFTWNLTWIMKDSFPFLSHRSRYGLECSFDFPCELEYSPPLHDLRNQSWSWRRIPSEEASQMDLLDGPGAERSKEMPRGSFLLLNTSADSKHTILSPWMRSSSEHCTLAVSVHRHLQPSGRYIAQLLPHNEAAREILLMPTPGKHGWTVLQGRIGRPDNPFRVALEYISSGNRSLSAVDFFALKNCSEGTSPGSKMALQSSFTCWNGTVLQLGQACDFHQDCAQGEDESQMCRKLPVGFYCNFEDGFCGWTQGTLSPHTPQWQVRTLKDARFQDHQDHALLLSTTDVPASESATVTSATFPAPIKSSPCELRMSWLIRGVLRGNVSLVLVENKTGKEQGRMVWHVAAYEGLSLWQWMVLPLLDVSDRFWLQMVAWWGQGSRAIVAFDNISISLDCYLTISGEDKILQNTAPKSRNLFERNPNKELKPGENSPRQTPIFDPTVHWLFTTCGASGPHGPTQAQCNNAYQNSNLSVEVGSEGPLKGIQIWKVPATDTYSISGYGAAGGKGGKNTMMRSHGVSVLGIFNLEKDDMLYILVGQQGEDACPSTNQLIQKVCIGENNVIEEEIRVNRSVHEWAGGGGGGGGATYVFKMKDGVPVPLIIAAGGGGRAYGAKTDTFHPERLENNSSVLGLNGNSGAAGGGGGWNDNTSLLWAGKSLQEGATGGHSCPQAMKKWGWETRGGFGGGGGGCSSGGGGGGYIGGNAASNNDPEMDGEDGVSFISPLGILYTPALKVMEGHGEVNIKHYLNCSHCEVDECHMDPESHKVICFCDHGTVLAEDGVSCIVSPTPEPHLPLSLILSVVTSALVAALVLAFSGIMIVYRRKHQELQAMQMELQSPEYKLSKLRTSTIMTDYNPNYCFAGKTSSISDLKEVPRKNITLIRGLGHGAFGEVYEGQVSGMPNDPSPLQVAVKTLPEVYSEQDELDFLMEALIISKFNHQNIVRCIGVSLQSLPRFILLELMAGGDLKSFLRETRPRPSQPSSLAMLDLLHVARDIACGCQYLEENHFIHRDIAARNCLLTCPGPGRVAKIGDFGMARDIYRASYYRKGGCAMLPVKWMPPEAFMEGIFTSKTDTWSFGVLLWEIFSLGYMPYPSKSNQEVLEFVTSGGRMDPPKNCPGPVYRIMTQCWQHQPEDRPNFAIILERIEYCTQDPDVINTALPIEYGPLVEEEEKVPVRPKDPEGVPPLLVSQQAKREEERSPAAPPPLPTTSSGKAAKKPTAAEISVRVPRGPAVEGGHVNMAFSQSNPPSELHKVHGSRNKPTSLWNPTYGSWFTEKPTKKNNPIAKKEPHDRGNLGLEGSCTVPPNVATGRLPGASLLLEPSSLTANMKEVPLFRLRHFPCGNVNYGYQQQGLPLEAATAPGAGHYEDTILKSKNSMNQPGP

[4] = biological target: T4, MKK7 (Homo sapiens, UniProt O14733)
T4 construct: purchased Eurofins DiscoverX KINOMEscan
T4 sequence (O14733 1-419): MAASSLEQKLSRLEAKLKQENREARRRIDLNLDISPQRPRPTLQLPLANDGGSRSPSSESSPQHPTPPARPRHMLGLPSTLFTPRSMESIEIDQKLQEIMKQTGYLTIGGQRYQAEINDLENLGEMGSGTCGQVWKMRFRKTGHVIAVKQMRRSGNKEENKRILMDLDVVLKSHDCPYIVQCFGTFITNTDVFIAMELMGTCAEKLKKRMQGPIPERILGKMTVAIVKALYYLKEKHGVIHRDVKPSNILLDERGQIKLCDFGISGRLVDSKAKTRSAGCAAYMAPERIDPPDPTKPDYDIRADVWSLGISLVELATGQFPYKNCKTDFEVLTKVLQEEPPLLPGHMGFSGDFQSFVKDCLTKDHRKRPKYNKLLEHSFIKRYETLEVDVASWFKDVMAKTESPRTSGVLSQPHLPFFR

[5] = biological target: T5, LATS2 (Homo sapiens, UniProt Q9NRM7)
T5 construct: purchased Eurofins DiscoverX KINOMEscan
T5 sequence (Q9NRM7 1-1088): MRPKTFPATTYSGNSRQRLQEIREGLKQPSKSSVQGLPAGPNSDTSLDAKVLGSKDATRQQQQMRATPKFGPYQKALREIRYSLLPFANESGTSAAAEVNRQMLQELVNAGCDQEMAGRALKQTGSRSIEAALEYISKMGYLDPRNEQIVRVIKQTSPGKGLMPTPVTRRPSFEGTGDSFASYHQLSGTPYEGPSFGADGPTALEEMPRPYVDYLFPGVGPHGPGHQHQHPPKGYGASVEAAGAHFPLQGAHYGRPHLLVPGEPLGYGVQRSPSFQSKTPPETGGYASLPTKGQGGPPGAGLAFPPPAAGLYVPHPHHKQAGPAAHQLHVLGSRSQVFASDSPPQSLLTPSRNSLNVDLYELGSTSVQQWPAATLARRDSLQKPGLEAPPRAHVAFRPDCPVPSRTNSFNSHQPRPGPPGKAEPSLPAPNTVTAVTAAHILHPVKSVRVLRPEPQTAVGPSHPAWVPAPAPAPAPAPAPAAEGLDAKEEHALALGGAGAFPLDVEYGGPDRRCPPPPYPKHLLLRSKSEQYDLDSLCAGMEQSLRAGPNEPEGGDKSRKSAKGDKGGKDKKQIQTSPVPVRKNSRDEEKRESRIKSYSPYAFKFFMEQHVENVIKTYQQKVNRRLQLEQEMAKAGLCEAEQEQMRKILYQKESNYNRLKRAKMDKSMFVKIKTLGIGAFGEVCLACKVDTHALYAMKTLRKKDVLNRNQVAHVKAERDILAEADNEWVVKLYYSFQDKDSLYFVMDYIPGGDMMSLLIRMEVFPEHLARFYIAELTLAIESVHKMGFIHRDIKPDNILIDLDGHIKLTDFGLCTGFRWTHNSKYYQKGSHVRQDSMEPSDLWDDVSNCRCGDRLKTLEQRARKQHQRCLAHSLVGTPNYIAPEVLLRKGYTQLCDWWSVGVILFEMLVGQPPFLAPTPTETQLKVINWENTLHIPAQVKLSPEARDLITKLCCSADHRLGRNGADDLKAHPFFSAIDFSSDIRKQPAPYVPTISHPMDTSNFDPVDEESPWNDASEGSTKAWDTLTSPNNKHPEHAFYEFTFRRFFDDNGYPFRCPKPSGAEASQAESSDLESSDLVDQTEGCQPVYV

[6] = biological target: T6, ABL1(Q252H)-nonphosphorylated (Homo sapiens, UniProt P00519, Q252H)
T6 construct: purchased Eurofins DiscoverX KINOMEscan

[7] = biological target: T7, ERK8 (Homo sapiens, UniProt Q8TD08)
T7 construct: purchased Eurofins DiscoverX KINOMEscan
T7 sequence (Q8TD08 1-544): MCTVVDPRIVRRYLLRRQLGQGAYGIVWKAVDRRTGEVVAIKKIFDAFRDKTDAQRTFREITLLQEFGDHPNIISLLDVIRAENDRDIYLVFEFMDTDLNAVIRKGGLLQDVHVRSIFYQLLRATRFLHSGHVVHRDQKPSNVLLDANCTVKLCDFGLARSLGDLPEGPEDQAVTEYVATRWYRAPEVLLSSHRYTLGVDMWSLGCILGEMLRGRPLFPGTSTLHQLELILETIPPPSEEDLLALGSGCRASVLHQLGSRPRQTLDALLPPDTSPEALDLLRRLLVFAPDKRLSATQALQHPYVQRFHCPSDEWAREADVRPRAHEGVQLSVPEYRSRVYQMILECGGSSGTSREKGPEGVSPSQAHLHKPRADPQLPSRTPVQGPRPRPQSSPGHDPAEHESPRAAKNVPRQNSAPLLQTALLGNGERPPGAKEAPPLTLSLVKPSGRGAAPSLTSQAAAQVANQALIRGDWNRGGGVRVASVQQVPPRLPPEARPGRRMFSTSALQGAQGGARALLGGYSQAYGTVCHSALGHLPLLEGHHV

[8] = biological target: T8, KIT(D816V) (Homo sapiens, UniProt P10721, D816V)
T8 construct: purchased Eurofins DiscoverX KINOMEscan

[9] = biological target: T9, CSNK1G1 (Homo sapiens, UniProt Q9HCP0)
T9 construct: purchased Eurofins DiscoverX KINOMEscan
T9 sequence (Q9HCP0 whole entry): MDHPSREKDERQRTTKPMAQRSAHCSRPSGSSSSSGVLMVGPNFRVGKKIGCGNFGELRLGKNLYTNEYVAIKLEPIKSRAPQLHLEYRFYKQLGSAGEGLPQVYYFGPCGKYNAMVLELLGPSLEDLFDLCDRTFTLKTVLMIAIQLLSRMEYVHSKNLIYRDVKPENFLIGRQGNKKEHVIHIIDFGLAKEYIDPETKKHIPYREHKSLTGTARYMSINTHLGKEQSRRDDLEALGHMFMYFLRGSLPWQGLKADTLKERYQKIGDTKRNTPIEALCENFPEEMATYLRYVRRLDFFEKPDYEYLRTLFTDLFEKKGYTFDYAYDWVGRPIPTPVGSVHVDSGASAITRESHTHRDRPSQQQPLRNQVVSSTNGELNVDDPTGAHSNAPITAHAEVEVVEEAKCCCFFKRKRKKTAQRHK

[10] = biological target: T10, YANK1 (Homo sapiens, UniProt Q8WU08)
T10 construct: purchased Eurofins DiscoverX KINOMEscan

[11] = biological target: T11, GSK3A (Homo sapiens, UniProt P49840)
T11 construct: purchased Eurofins DiscoverX KINOMEscan
T11 sequence (P49840 whole entry): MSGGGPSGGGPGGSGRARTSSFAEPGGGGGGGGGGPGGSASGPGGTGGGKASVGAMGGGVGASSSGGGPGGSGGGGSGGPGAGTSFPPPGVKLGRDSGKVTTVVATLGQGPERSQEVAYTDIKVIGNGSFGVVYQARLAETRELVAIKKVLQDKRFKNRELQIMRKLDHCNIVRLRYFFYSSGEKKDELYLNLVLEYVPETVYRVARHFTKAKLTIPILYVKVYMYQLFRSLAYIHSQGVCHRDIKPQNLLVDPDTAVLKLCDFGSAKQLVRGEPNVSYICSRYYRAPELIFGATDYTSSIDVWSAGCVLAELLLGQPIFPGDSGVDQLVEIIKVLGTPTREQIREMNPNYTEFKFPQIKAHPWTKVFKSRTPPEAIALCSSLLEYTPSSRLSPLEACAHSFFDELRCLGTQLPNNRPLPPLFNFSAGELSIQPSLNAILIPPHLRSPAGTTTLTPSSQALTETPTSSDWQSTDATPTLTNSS

[12] = biological target: T12, RPS6KA5(Kin.Dom.2-C-terminal) (Homo sapiens, UniProt O75582)
T12 construct: RPS6KA5(Kin.Dom.2-C-terminal); purchased Eurofins DiscoverX KINOMEscan

[13] = biological target: T13, ABL1-phosphorylated (Homo sapiens, UniProt P00519)
T13 construct: purchased Eurofins DiscoverX KINOMEscan

[14] = biological target: T14, MELK (Homo sapiens, UniProt Q14680)
T14 construct: purchased Eurofins DiscoverX KINOMEscan
T14 sequence (Q14680 whole entry): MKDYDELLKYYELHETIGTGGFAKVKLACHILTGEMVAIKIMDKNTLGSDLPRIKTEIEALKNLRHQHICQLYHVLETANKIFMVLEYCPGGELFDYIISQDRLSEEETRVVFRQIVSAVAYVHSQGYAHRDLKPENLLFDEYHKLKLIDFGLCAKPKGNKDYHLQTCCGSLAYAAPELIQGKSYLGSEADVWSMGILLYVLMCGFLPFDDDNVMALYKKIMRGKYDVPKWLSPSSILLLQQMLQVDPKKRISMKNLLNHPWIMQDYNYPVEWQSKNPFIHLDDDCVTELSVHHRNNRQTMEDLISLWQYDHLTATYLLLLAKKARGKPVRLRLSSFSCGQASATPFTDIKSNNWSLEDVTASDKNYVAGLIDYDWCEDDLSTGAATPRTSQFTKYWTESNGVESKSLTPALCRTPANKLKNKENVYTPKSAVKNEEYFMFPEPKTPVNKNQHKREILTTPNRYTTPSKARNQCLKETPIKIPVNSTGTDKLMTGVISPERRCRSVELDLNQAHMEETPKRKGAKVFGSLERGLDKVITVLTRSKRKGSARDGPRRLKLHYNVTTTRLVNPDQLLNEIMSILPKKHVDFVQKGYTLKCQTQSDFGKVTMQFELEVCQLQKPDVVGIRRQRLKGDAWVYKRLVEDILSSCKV

T1 sequence (Q16513 whole entry): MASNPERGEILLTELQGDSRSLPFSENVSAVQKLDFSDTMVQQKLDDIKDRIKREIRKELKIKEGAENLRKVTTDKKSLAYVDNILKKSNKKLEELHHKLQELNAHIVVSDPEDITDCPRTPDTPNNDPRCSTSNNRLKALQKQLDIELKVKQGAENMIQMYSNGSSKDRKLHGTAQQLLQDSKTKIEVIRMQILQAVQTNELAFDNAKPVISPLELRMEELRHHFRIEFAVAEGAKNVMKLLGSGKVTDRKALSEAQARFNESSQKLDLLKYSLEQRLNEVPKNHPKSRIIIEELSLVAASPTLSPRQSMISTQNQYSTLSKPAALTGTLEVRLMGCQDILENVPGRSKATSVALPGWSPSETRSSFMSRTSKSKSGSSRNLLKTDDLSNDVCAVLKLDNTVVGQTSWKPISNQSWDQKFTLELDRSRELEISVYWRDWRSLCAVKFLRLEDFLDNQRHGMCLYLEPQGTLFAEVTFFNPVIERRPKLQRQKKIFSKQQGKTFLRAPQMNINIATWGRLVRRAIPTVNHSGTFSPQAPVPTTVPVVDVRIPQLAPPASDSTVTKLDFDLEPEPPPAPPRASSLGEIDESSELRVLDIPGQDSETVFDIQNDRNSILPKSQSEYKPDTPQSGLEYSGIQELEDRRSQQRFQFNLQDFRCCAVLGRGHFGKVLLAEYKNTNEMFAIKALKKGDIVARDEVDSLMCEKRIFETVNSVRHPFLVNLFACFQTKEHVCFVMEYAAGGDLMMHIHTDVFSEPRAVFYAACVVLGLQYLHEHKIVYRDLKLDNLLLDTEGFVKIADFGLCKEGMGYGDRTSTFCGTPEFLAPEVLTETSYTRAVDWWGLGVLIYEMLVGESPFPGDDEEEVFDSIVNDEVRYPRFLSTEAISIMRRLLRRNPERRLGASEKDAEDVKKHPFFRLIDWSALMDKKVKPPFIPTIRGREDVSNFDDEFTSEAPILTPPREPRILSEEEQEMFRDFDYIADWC
T2 sequence (Q99558 whole entry): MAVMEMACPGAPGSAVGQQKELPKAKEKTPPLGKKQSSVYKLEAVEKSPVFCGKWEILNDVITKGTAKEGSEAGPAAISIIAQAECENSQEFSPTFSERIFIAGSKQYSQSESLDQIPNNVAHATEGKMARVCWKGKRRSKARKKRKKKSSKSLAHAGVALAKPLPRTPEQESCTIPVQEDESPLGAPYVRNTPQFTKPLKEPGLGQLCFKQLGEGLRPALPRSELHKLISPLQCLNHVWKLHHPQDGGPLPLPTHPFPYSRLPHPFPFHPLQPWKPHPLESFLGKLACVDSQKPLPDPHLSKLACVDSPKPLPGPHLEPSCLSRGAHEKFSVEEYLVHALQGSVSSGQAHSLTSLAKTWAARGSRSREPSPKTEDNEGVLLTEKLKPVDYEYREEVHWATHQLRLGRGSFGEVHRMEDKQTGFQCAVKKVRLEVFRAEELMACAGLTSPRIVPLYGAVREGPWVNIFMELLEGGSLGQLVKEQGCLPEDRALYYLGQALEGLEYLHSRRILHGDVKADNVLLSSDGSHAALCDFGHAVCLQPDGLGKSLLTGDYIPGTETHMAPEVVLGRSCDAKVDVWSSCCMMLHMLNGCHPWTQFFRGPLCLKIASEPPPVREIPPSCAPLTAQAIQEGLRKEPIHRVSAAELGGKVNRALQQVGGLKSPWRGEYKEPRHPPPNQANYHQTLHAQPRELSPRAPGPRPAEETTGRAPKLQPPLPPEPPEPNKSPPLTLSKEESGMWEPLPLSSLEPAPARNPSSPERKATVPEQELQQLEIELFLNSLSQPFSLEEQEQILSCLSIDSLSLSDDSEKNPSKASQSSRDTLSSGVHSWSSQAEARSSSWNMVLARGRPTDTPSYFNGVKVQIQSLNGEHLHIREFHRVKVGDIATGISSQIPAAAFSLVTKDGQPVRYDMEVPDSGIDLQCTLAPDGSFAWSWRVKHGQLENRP

SMILES	remaining binding at 1 µM [1]	remaining binding at 1 µM [2]	remaining binding at 1 µM [3]	remaining binding at 1 µM [4]	remaining binding at 1 µM [5]	remaining binding at 1 µM [6]	remaining binding at 1 µM [7]	remaining binding at 1 µM [8]	remaining binding at 1 µM [9]	remaining binding at 1 µM [10]	remaining binding at 1 µM [11]	remaining binding at 1 µM [12]	remaining binding at 1 µM [13]	remaining binding at 1 µM [14]
Clc1cc(NCC2CC2)c2ncc(-c3ccc4[nH]ncc4c3)n2n1 [compound 2, 6-Chloro-N-(cyclopropylmethyl)-3-(1H-indazol-5-yl)imidazo[1,2-b]pyridazin-8-amine]	100%	90%	88%	92%	58%	93%	87%	78%	100%	95%	93%	93%	94%	35%
O=C(CN1CCOCC1)N[C@H]1CC[C@H](Nc2cc(Cl)nn3c(-c4ccc5[nH]ncc5c4)cnc23)CC1 [compound 26]	100%	78%	64%	100%	73%	48%	81%	29%	95%	98%	100%	80%	54%	16%
CN1CCC(CNc2cc(Cl)nn3c(-c4cc5nc(Nc6ccccc6)[nH]c5cc4F)cnc23)CC1 [compound 31, 6-Chloro-3-(6-fluoro-2-(phenylamino)-1H-benzo[d]imidazol-5-yl)-N-((1-methylpiperidin-4-yl)methyl)imidazo[1,2-b]pyridazin-8-amine]	98%	92%	91%	93%	94%	64%	100%	81%	100%	73%	84%	99%	81%	96%
